Measured values as given in patent publication US10800794B2, “Heterocycle-substituted bicyclic azole pesticides” (priority 2015, dated 2020).

System: sweetpotato whitefly (Bemisia tabaci (Gennadius))
Experiment: Test D: control of sweetpotato whitefly through contact and/or systemic means, sprayed cotton plant infested with eggs
Format: in vivo
Conditions: sprayed at 50 ppm, assessed after 13 days at 28° C.
Method: Test compounds were formulated using a solution containing 10% acetone, 90% water and 300 ppm X-77® Spreader Lo-Foam Formula non-ionic surfactant containing alkylarylpolyoxyethylene, free fatty acids, glycols and isopropanol (Loveland Industries, Inc. Greeley, Colo., USA). The formulated compounds were applied in 1 mL of liquid through a SUJ2 atomizer nozzle with ⅛ JJ custom body (Spraying Systems Co. Wheaton, Ill., USA) positioned 1.27 cm (0.5 inches) above the top of each test unit. Test compounds were sprayed at the rates indicated, and each test was replicated three times.
For evaluating control of the sweetpotato whitefly (Bemisia tabaci (Gennadius)) through contact and/or systemic means, the test unit consisted of a small open container with a 12-14-day-old cotton plant inside. Prior to the spray application, both cotyledons were removed from the plant, leaving one true leaf for the assay. Adult whiteflies were allowed to lay eggs on the plant and then were removed from the test unit. Cotton plants infested with at least 15 eggs were submitted to the test for spraying.
Test compounds were formulated and sprayed at 250 and/or 50 ppm. After spraying, the test units were allowed to dry for 1 hour. […] Each test unit was then visually assessed for insect mortality.

`CN(C)C(=O)C(C)(C)NC(=O)c1csc2nc(-c3cncc(F)c3)cn12` [Compound 14] was tested, and the mortality was “at least 80%”.
